# Laboratory results reported in patent publication US7151105B2, “Inhibitors of Hepatitis C virus RNA-dependent RNA polymerase, and compositions and treatments using the same” (Agouron Pharmaceuticals, Inc., priority 2004, dated 2006).
# Molecular target: T1, Recombinant HCV polymerase (Hepatitis C virus genotype 1b, UniProt P26663)
# T1 construct: Recombinant HCV polymerase was tested for its ability to perform primer/template-directed transcription
# Test: biochemical
# Conditions: inhibition of polymerase-directed transcription; 30 min at 30° C; 30 nM enzyme; cpm data in triplicate
# Method in brief: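 Primer/template-directed RNA synthesis by 2.5 pmol HCV polymerase on poly(rC)300/biotin-dG12 with 1 μM GTP plus α-32P-GTP, in pH 7.2 Tris buffer with 10 mM MgCl2, for 30 min at 30 °C. Products were filter-captured and counted, with 1% DMSO final. IC50 was fitted from triplicate cpm; percent inhibition was reported where IC50 was impractical.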
# T1 sequence (P26663 2420-3010): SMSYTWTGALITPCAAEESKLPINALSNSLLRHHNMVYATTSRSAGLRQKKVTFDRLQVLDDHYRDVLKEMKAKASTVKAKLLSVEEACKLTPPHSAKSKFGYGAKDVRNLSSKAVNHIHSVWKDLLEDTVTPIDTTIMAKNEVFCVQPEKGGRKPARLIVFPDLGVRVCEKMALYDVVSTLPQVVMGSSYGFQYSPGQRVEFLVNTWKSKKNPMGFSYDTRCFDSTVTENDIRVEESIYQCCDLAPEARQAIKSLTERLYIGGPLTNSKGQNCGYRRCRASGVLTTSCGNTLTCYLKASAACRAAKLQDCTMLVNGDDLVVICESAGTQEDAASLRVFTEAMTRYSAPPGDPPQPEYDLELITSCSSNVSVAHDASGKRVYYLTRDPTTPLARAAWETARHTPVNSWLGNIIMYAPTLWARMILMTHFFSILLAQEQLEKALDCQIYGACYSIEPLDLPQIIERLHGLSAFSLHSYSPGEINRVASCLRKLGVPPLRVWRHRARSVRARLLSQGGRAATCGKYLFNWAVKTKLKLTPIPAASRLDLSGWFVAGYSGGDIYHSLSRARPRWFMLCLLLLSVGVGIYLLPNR
row,SMILES,IC50
1,"CCc1cc(CCC2(C3CCCC3)CC(O)=C(Cc3nc4nc(C)cc(C)n4n3)C(=O)O2)ccc1CN1CCOCC1 (single isomer, unassigned) [A(156), 6-Cyclopentyl-3-[(5,7-dimethyl[1,2,4]triazolo[1,5-a]pyrimidin-2-yl)methyl]-6-{2-[3-ethyl-4-(morpholin-4-ylmethyl)phenyl]ethyl}-4-hydroxy-5,6-dihydro-2H-pyran-2-one]",5 nM
2,"Cc1cnc2nc(CC3=C(O)CC(CCc4ccc(C(C)(C)C#N)c(C)c4)(C4CCCC4)OC3=O)nn2c1 (stereo not shown) [A(78), 2-[4-(2-{2-Cyclopentyl-4-hydroxy-5-[(6-methyl[1,2,4]triazolo[1,5-a]pyrimidin-2-yl)methyl]-6-oxo-3,6-dihydro-2H-pyran-2-yl}ethyl)-2-methylphenyl]-2-methylpropanenitrile]",12 nM
3,"Cc1cc(C)n2nc(CC3=C(O)CC(CCc4ccc(O)c(CC(F)(F)F)c4)(C4CCCC4)OC3=O)nc2n1 (single isomer, unassigned) [A(75), 6-cyclopentyl-3-[(5,7-dimethyl[1,2,4]triazolo[1,5-a]pyrimidin-2-yl)methyl]-4-hydroxy-6-{2-[4-hydroxy-3-(2,2,2-trifluoroethyl)phenyl]ethyl}-5,6-dihydro-2H-pyran-2-one]",5 nM
4,"COC(=O)c1ccc(CCC2(C3CCCC3)CC(O)=C(Cc3nc4nc(C)cc(C)n4n3)C(=O)O2)cc1Cl (stereo not shown) [B(9), Methyl 2-chloro-4-(2-{2-cyclopentyl-5-[(5,7-dimethyl[1,2,4]triazolo[1,5-a]pyrimidin-2-yl)methyl]-4-hydroxy-6-oxo-3,6-dihydro-2H-pyran-2-yl}ethyl)benzoate]",6 nM
5,"CCc1nn2c(=O)cc(CC3=C(O)CC(CCc4ccc(C(C)(C)C#N)c(F)c4)(C4CCCC4)OC3=O)nc2s1 (stereo not shown) [B(20), 2-[4-(2-{2-Cyclopentyl-5-[(2-ethyl-5-oxo-5H-[1,3,4]thiadiazolo[3,2-a]pyrimidin-7-yl)methyl]-4-hydroxy-6-oxo-3,6-dihydro-2H-pyran-2-yl}ethyl)-2-fluorophenyl]-2-methylpropanenitrile]",5 nM
6,C[C@@H](NC(=O)OC(C)(C)C)c1ccc(CCC2(C3CCCC3)CC(=O)CC(=O)O2)cc1 (stereo partly shown) [A(90)],43000 nM
7,Cc1nn(C)c(C)c1CC1=C(O)CC(CCc2ccc(C(C)(C)C#N)c(F)c2)(C2CCCC2)OC1=O (stereo not shown) [A(89)],9 nM
8,"CCc1ccc(OC)c(CCC2(C3CCCC3)CC(O)=C(Cc3nc4nc(C)cc(C)n4n3)C(=O)O2)n1 (stereo not shown) [A(6), 6-Cyclopentyl-3-[(5,7-dimethyl[1,2,4]triazolo[1,5-a]pyrimidin-2-yl)methyl]6-[2-(6-ethyl-3-methoxypyridin-2-yl)ethyl]4-hydroxy-5,6-dihydro-2H-pyran-2-one]",39 nM
9,"Cc1cc(C)n2nc(N(C)C3C(=O)CC(CCc4ccc(C(C)(C)C#N)c(Cl)c4)(C4CCCC4)OC3=O)nc2n1 (stereo not shown) [B(26), 2-[2-Chloro-4-(2-{2-cyclopentyl-5-[(5,7-dimethyl[1,2,4]triazolo[1,5-a]pyrimidin-2-yl)(methyl)amino]-4,6-dioxotetrahydro-2H-pyran-2-yl}ethyl)phenyl]-2-methylpropanenitrile]",18000 nM
10,"CCc1cc(CCC2(C3CCCC3)CC(O)=C(Cc3nc4ncc(C)cn4n3)C(=O)O2)ccc1NS(C)(=O)=O (stereo not shown) [A(106), N-[4-(2-{2-cyclopentyl-4-hydroxy-5-[(6-methyl[1,2,4]triazolo[1,5-a]pyrimidin-2-yl)methyl]-6-oxo-3,6-dihydro-2H-pyran-2-yl}ethyl)-2-ethylphenyl]methanesulfonamide]",4 nM
11,"Cn1cc(CC2=C(O)CC(CCc3ccc(C(C)(C)C#N)c(Cl)c3)(C3CCCC3)OC2=O)cn1 (stereo not shown) [B(24), 2-[2-Chloro-4-(2-{2-cyclopentyl-4-hydroxy-5-[(1-methyl-1H-pyrazol-4-yl)methyl]-6-oxo-3,6-dihydro-2H-pyran-2-yl}ethyl)phenyl]-2-methylpropanenitrile]",100 nM
12,"Cc1c(CC2=C(O)CC(CCc3ccc(C(C)(C)C#N)c(F)c3)(C3CCCC3)OC2=O)c(=O)n(-c2ccccc2)n1C (stereo not shown) [A(100), 2-[4-(2-{2-Cyclopentyl-5-[(1,5-dimethyl-3-oxo-2-phenyl-2,3-dihydro-1H-pyrazol-4-yl)methyl]-4-hydroxy-6-oxo-3,6-dihydro-2H-pyran-2-yl}ethyl)-2-fluorophenyl]-2-methylpropanenitrile]",79 nM
13,"Cc1cc(C)n2nc(CC3=C(O)CC(CCc4ccc(C(=O)O)c(F)c4)(C4CCCC4)OC3=O)nc2n1 (stereo not shown) [B(11), 4-(2-{2-Cyclopentyl-5-[(5,7-dimethyl[1,2,4]triazolo[1,5-a]pyrimidin-2-yl)methyl]-4-hydroxy-6-oxo-3,6dihydro-2H-pyran-2-yl}ethyl)-2-fluorobenzoic acid]",260 nM
14,"CCCOc1cnc(CC)cc1CCC1(C2CCCC2)CC(O)=C(Cc2nc3nc(C)cc(C)n3n2)C(=O)O1 (single isomer, unassigned) [A(53), 6-Cyclopentyl-3-[(5,7-dimethyl[1,2,4]triazolo[1,5-a]pyrimidin-2-yl)methyl]-6-[2-(2-ethyl-5-propoxypyridin-4-yl)ethyl]-4-hydroxy-5,6-dihydro-2H-pyran-2-one]",3 nM
15,"CS(=O)(=O)c1ccc(CCC2(C3CCCC3)CC(=O)CC(=O)O2)cc1F (stereo not shown) [A(63), 6-Cyclopentyl-6-{2-[3-fluoro-4-(methylsulfonyl)phenyl]ethyl}dihydro-2H-pyran-2,4(3H)-dione]",18500 nM
16,Cc1cc(C)n2nc(CC3=C(O)CC(CCc4ccc([C@@H](C)NS(C)(=O)=O)cc4)(C4CCCC4)OC3=O)nc2n1 (stereo partly shown) [A(83)],38 nM
17,CCc1cc(CCC2(C3CCCC3)CC(O)=C(Cc3nc4nc(C)cc(C)n4n3)C(=O)O2)c(OCC(C)C)cc1O (stereo not shown) [A(59)],3 nM
18,"CCCOc1cc(O)c(CCC2(C3CCCC3)CC(O)=C(Cc3nc4ncc(C)cn4n3)C(=O)O2)cc1CC (stereo not shown) [A(50), 6-Cyclopentyl-6-[2-(5-ethyl-2-hydroxy-4-propoxyphenyl)ethyl]-4-hydroxy-3-[(6-methyl[1,2,4]triazolo[1,5-a]pyrimidin-2-yl)methyl]-5,6-dihydro-2H-pyran-2-one]",4 nM
19,"CC(C)(C#N)c1ncc(CCC2(C3CCCC3)CC(=O)CC(=O)O2)cc1Cl (stereo not shown) [B(29), 2-{3-Chloro-5-[2-(2-cyclopentyl-4,6-dioxotetrahydro-2H-pyran-2-yl)ethyl]pyridin-2-yl}-2-methylpropanenitrile]",5200 nM
20,"CCc1cc(CCC2(C3CCCC3)CC(O)=C(Cc3nc4nc(C)cc(C)n4n3)C(=O)O2)ccc1CN1CCOCC1 (racemic) [A(123), 6-cyclopentyl-3-[(5,7-dimethyl[1,2,4]triazolo[1,5-a]pyrimidin-2-yl)methyl]-6-{2-[3-ethyl-4-(morpholin-4-ylmethyl)phenyl]ethyl}-4-hydroxy-5,6-dihydro-2H-pyran-2-one]",39 nM
21,"CCOc1cc(O)c(CC)cc1CCC1(C2CCCC2)CC(O)=C(Cc2nc3nc(C)cc(C)n3n2)C(=O)O1 (single isomer, unassigned) [A(31), 6-Cyclopentyl-3-[(5,7-dimethyl[1,2,4]triazolo[1,5-a]pyrimidin-2-yl)methyl]-6-[2-(2-ethoxy-5-ethyl-4-hydroxyphenyl)ethyl]-4-hydroxy-5,6-dihydro-2H-pyran-2-one]",6 nM
22,"Cc1cc(C)n2nc(CC3=C(O)CC(CCc4ccc(S(C)(=O)=O)c(Cl)c4)(C4CCCC4)OC3=O)nc2n1 (stereo not shown) [B(1), 6-{2-[3-Chloro-4-(methylsulfonyl)phenyl]ethyl}-6-cyclopentyl-3-[(5,7-dimethyl[1,2,4]triazolo[1,5-a]pyrimidin-2-yl)methyl]hydroxy-5,6-dihydro-2H-pyran-2-one]",60 nM
23,"Cc1cnc2nc(CC3=C(O)CC(CCc4cc(F)c(C(C)(C)C#N)cc4O)(C4CCCC4)OC3=O)nn2c1 (stereo not shown) [A(79), 2-[4-(2-{2-Cyclopentyl-4-hydroxy-5-[(6-methyl[1,2,4]triazolo[1,5-a]pyrimidin-2-yl)methyl]-6-oxo-3,6-dihydro-2H-pyran-2-yl}ethyl)-2-fluoro-5-hydroxyphenyl]-2-methylpropanenitrile]",12 nM
24,"COc1cc(O)c(C(C)=O)cc1CCC1(C2CCCC2)CC(O)=C(Cc2nc3nc(C)cc(C)n3n2)C(=O)O1 (stereo not shown) [A(98), 6-[2-(5-Acetyl-4-hydroxy-2-methoxyphenyl)ethyl]-cyclopentyl-3-[(5,7-dimethyl[1,2,4]triazolo[1,5-a]pyrimidin-2-yl)methyl]-4-hydroxy-5,6-dihydro-2H-pyran-2-one]",11 nM
25,"CCc1cc(CCC2(C3CCCC3)CC(O)=C(Cc3nc4nc(C)cc(C)n4n3)C(=O)O2)ccc1C(=O)OC (stereo not shown) [A(118), Methyl 4-(2-{2-cyclopentyl-5-[(5,7-dimethyl[1,2,4]triazolo[1,5a]pyrimidin-2-yl)methyl]-4-hydroxy-6oxo-3,6-dihydro-2H-pyran-2-yl}ethyl)-2-ethylbenzoate]",7 nM
26,"CCc1cc(CCC2(C3CCCC3)CC(O)=C(Cc3nc4nc(C)cc(C)n4n3)C(=O)O2)ccc1CNC(C)=O (single isomer, unassigned; enantiomer 2) [A(133), Enantiomer 2 of N-[4-(2-{2-cyclopentyl-5-[(5,7-dimethyl[1,2,4]triazolo[1,5-a]pyrimidin-2-yl)methyl]-4-hydroxy-6-oxo-3,6-dihydro-2H-pyran-2-ylethyl)-2-ethylbenzyl]acetamide]",5 nM
27,"CCc1cc(CCC2(C3CCCC3)CC(=O)CC(=O)O2)ccc1OCCNC(=O)OC(C)(C)C (stereo not shown) [A(68), tert-Butyl 2-{4-[2-(2-cyclopentyl-4,6-dioxotetrahydro-2H-pyran-2-yl)ethyl]-2-ethylphenoxy}ethylcarbamate]",12000 nM
28,"CC(=O)NCc1ccc(CCC2(C3CCCC3)CC(O)=C(Cc3nc4nc(C)cc(C)n4n3)C(=O)O2)cc1F (stereo not shown) [A(25), N-[4-(2-{2-Cyclopentyl-5-[(5,7-dimethyl[1,2,4]triazolo[1,5-a]pyrimidin-2-yl)methyl]-4-hydroxy-6-oxo-3,6dihydro-2H-pyran-2-yl}ethyl)-2-fluorobenzyl]acetamide]",100 nM
